Source: patent US12534452B2, “N-(1H-imidazol-2-yl)benzamide compound and pharmaceutical composition comprising the same as active ingredient” (KAINOS MEDICINE, INC., priority 2019, dated 2026)

The molecules below were run against IRAK4 (Homo sapiens (Human), UniProt Q9NWZ3) (assay: In vitro IRAK4 phosphorylation activity assay). Details: [γ-33P]-ATP, myelin basic protein substrate, 40 minutes at room temperature; categories.
Chain of IRAK4 (Q9NWZ3 whole entry): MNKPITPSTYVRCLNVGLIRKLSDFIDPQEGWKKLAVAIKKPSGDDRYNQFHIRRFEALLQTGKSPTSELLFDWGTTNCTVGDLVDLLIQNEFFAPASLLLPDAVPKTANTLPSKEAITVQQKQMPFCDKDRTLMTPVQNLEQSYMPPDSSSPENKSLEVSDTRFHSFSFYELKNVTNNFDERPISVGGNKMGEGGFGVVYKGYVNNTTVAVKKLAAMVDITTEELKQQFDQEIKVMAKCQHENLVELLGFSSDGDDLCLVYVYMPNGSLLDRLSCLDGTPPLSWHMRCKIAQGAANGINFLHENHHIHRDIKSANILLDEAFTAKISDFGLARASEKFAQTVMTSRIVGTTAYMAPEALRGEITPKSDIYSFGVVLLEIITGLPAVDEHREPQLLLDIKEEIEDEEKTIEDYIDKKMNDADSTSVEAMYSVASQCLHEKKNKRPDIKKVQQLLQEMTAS
Type: biochemical
Experimental: In vitro IRAK4 analysis was performed using N-(1H-imidazol-2-yl)benzamide compounds according to the present invention. All compounds were prepared by dissolving in DMSO. N-(1H-imidazol-2-yl)benzamide compound according to the present invention and other elements for the reaction were added to an assay well. In the standard Kinase Profiler service the preincubation step between the N-(1H-imidazol-2-yl)benzamide compound and kinase was not performed before the reaction.
To the positive control well, all reactants except for the N-(1H-imidazol-2-yl)benzamide compound according to the present invention were added, and DMSO was added to remove the solvent effect. A known control inhibitor having the following structure was added to the blank wells to inhibit kinase activity and establish a base-line.
IRAK4 was incubated with 8 mM MOPS pH 7.0, 0.2 mM EDTA, 0.33 mg/mL myelin basic protein, 10 mM magnesium acetate and [γ-33P]-ATP (specific activity approx. 500 cpm/pmol, concentration as required). The reaction was initiated by the addition of the MgATP mix. After incubation for 40 minutes at room temperature, the reaction was stopped by the addition of 3% phosphoric acid solution. 10 μL of the reaction was then spotted onto a P30 filtermat and washed three times for 5 minutes in 75 mM phosphoric acid and once in methanol prior to drying and scintillation counting.
The results are shown in Table 26 below, where the phosphorylation activity of IC50 values for IRAK4 is shown in categories (A: <50 nM, B: 50-100 nM, C: >100 nM).
For O=C(CCc1cn(-c2ccccc2)c(NC(=O)c2cccc(-c3c[nH]nc3[N+](=O)[O-])c2)n1)Nc1ccccc1 [Example 1, 3-(3-nitro-1H-pyrazol-4-yl)-N-(4-(3-oxo-3-(phenylamino)propyl)-1-phenyl-1H-imidazol-2-yl)benzamide], the IC50 was over 100 nM.
With Nc1n[nH]cc1-c1cccc(C(=O)Nc2nc(CCC(=O)Nc3ccccc3)cn2-c2ccccc2)c1 [Example 2, 3-(3-amino-1H-pyrazol-4-yl)-N-(4-(3-oxo-3-(phenylamino)propyl)-1-phenyl-1H-imidazol-2-yl)benzamide] the IC50 was over 100 nM.
O=C(CCc1cn(-c2ccccc2)c(NC(=O)c2cccc(-c3c[nH]nc3C(F)(F)F)c2)n1)Nc1ccccc1 [Example 3, N-(4-(3-oxo-3-(phenylamino)propyl)-1-phenyl-1H-imidazol-2-yl)-3-(3-(trifluoromethyl)-1H-pyrazol-4-yl)benzamide] showed an IC50 of over 100 nM.
O=C(CCc1cn(-c2ccccc2)c(NC(=O)c2cncc(-c3cn[nH]c3)c2)n1)Nc1ccccc1 [Example 4, N-(4-(3-oxo-3-(phenylamino)propyl)-1-phenyl-1H-imidazol-2-yl)-5-(1H-pyrazol-4-yl)nicotinamide] showed an IC50 of over 100 nM.
Molecule O=C(CCc1cn(-c2ccccc2)c(NC(=O)c2cccc(-c3cnoc3)c2)n1)Nc1ccccc1 [Example 5, 3-(isoxazol-4-yl)-N-(4-(3-oxo-3-(phenylamino)propyl)-1-phenyl-1H-imidazol-2-yl)benzamide] has an IC50 of over 100 nM.
O=C(CCc1cn(-c2ccccc2)c(NC(=O)c2cccc(-c3cn[nH]c3)c2)n1)Nc1ccccc1 [Example 6, N-(4-(3-oxo-3-(phenylamino)propyl)-1-phenyl-1H-imidazol-2-yl)-3-(1H-pyrazol-4-yl)benzamide] showed an IC50 of under 50 nM.
O=C(O)CCc1cn(-c2ccccc2)c(NC(=O)c2cccc(-c3cn[nH]c3)c2)n1 [Example 7, 3-(2-(3-(1H-pyrazol-4-yl)benzamido)-1-phenyl-1H-imidazol-4-yl)propanoic acid] showed an IC50 of under 50 nM.
Molecule O=C(CCc1cn(-c2ccccc2)c(NC(=O)c2cccc(-c3cn[nH]c3)c2)n1)NN1CCCCC1 [Example 8, N-(4-(3-oxo-3-(piperidin-1-ylamino)propyl)-1-phenyl-1H-imidazol-2-yl)-3-(1H-pyrazol-4-yl)benzamide] has an IC50 of 50 to 100 nM.
CN1CCN(NC(=O)CCc2cn(-c3ccccc3)c(NC(=O)c3cccc(-c4cn[nH]c4)c3)n2)CC1 [Example 9, N-(4-(3-((4-methylpiperazin-1-yl)amino)-3-oxopropyl)-1-phenyl-1H-imidazol-2-yl)-3-(1H-pyrazol-4-yl)benzamide] gave an IC50 of over 100 nM.
In the case of O=C(CCc1cn(-c2ccccc2)c(NC(=O)c2cccc(-c3cn[nH]c3)c2)n1)Nc1ccc(F)cc1 [Example 10, N-(4-(3-((4-fluorophenyl)amino)-3-oxopropyl)-1-phenyl-1H-imidazol-2-yl)-3-(1H-pyrazol-4-yl)benzamide], the IC50 is reported as 50 to 100 nM.
In the case of O=C(Nc1nc(CCC(=O)N2CCOCC2)cn1-c1ccccc1)c1cccc(-c2cn[nH]c2)c1 [Example 11, N-(4-(3-morpholino-3-oxopropyl)-1-phenyl-1H-imidazol-2-yl)-3-(1H-pyrazol-4-yl)benzamide], the IC50 is reported as under 50 nM.
O=C(Nc1nc(CCC(=O)N2CCCCC2)cn1-c1ccccc1)c1cccc(-c2cn[nH]c2)c1 [Example 12, N-(4-(3-oxo-3-(piperidin-1-yl)propyl)-1-phenyl-1H-imidazol-2-yl)-3-(1H-pyrazol-4-yl)benzamide] was tested, and the IC50 was under 50 nM.
Work on COC[C@@H]1CCCN1NC(=O)CCc1cn(-c2ccccc2)c(NC(=O)c2cccc(-c3cn[nH]c3)c2)n1 [Example 13, (S)—N-(4-(3-((2-(methoxymethyl)pyrrolidin-1-yl)amino)-3-oxopropyl)-1-phenyl-1H-imidazol-2-yl)-3-(1H-pyrazol-4-yl)benzamide] yielded an IC50 of 50 to 100 nM.
With O=C(Nc1nc(CCC(=O)N2CCN(Cc3ccc(OC(F)(F)F)cc3)CC2)cn1-c1ccccc1)c1cccc(-c2cn[nH]c2)c1 [Example 14, N-(4-(3-oxo-3-(4-(4-(trifluoromethoxy)benzyl)piperazin-1-yl)propyl)-1-phenyl-1H-imidazol-2-yl)-3-(1H-pyrazol-4-yl)benzamide] the IC50 was over 100 nM.
Work on O=C(CCc1cn(-c2ccccc2)c(NC(=O)c2cccc(-c3cn[nH]c3)c2)n1)Nc1ccccn1 [Example 15, N-(4-(3-oxo-3-(pyridin-2-ylamino)propyl)-1-phenyl-1H-imidazol-2-yl)-3-(1H-pyrazol-4-yl)benzamide] yielded an IC50 of over 100 nM.
O=C(CCc1cn(-c2ccccc2)c(NC(=O)c2cccc(-c3cn[nH]c3)c2)n1)Nc1ccc(F)cc1F [Example 16, N-(4-(3-((2,4-difluorophenyl)amino)-3-oxopropyl)-1-phenyl-1H-imidazol-2-yl)-3-(1H-pyrazol-4-yl)benzamide] showed an IC50 of under 50 nM.
Molecule COC[C@H]1CCCN1NC(=O)CCc1cn(-c2ccccc2)c(NC(=O)c2cccc(-c3cn[nH]c3)c2)n1 [Example 17, (R)—N-(4-(3-((2-(methoxymethyl)pyrrolidin-1-yl)amino)-3-oxopropyl)-1-phenyl-1H-imidazol-2-yl)-3-(1H-pyrazol-4-yl)benzamide] has an IC50 of over 100 nM.
COC(=O)CCc1cn(-c2ccccc2)c(NC(=O)c2cccc(-c3cn[nH]c3)c2)n1 [Example 18, methyl 3-(2-(3-(1H-pyrazol-4-yl)benzamido)-1-phenyl-1H-imidazol-4-yl)propanoate] was tested, and the IC50 was under 50 nM.
In the case of COC[C@@H]1CCCN1C(=O)CCc1cn(-c2ccccc2)c(NC(=O)c2cccc(-c3cn[nH]c3)c2)n1 [Example 19, (S)—N-(4-(3-(2-(methoxymethyl)pyrrolidin-1-yl)-3-oxopropyl)-1-phenyl-1H-imidazol-2-yl)-3-(1H-pyrazol-4-yl)benzamide], the IC50 is reported as 50 to 100 nM.
Work on COC[C@H]1CCCN1C(=O)CCc1cn(-c2ccccc2)c(NC(=O)c2cccc(-c3cn[nH]c3)c2)n1 [Example 20, (R)—N-(4-(3-(2-(methoxymethyl)pyrrolidin-1-yl)-3-oxopropyl)-1-phenyl-1H-imidazol-2-yl)-3-(1H-pyrazol-4-yl)benzamide] yielded an IC50 of over 100 nM.
O=C(CCc1cn(-c2ccccc2)c(NC(=O)c2cccc(-c3cn[nH]c3)c2)n1)Nn1cnnc1 [Example 21, N-(4-(3-((4H-1,2,4-triazol-4-yl)amino)-3-oxopropyl)-1-phenyl-1H-imidazol-2-yl)-3-(1H-pyrazol-4-yl)benzamide] showed an IC50 of 50 to 100 nM.
In the case of O=C(CCc1cn(-c2ccccc2)c(NC(=O)c2cccc(-c3cn[nH]c3)c2)n1)Nc1cnccn1 [Example 22, N-(4-(3-oxo-3-(pyrazin-2-ylamino)propyl)-1-phenyl-1H-imidazol-2-yl)-3-(1H-pyrazol-4-yl)benzamide], the IC50 is reported as over 100 nM.
With C[C@@H]1CCCN1C(=O)CCc1cn(-c2ccccc2)c(NC(=O)c2cccc(-c3cn[nH]c3)c2)n1 [Example 23, (R)—N-(4-(3-(2-methylpyrrolidin-1-yl)-3-oxopropyl)-1-phenyl-1H-imidazol-2-yl)-3-(1H-pyrazol-4-yl)benzamide] the IC50 was under 50 nM.
Molecule C[C@H]1CCCN1C(=O)CCc1cn(-c2ccccc2)c(NC(=O)c2cccc(-c3cn[nH]c3)c2)n1 [Example 24, (S)—N-(4-(3-(2-methylpyrrolidin-1-yl)-3-oxopropyl)-1-phenyl-1H-imidazol-2-yl)-3-(1H-pyrazol-4-yl)benzamide] has an IC50 of under 50 nM.
O=C(Nc1nc(CCC(=O)N2CC[C@@H](C(=O)O)C2)cn1-c1ccccc1)c1cccc(-c2cn[nH]c2)c1 [Example 25, (R)-1-(3-(2-(3-(1H-pyrazol-4-yl)benzamido)-1-phenyl-1H-imidazol-4-yl)propanoyl)pyrrolidine-3-carboxylic acid] gave an IC50 of 50 to 100 nM.
O=C(Nc1nc(CCC(=O)N2CC[C@H](C(=O)O)C2)cn1-c1ccccc1)c1cccc(-c2cn[nH]c2)c1 [Example 26, (S)-1-(3-(2-(3-(1H-pyrazol-4-yl)benzamido)-1-phenyl-1H-imidazol-4-yl)propanoyl)pyrrolidine-3-carboxylic acid] gave an IC50 of over 100 nM.
Molecule O=C(CCc1cn(-c2ccccc2)c(NC(=O)c2cccc(-c3cn[nH]c3)c2)n1)NN1CCCC1 [Example 27, N-(4-(3-oxo-3-(pyrrolidin-1-ylamino)propyl)-1-phenyl-1H-imidazol-2-yl)-3-(1H-pyrazol-4-yl)benzamide] has an IC50 of over 100 nM.
With O=C(Nc1nc(CCC(=O)N2CCCC2)cn1-c1ccccc1)c1cccc(-c2cn[nH]c2)c1 [Example 28, N-(4-(3-oxo-3-(pyrrolidin-1-yl)propyl)-1-phenyl-1H-imidazol-2-yl)-3-(1H-pyrazol-4-yl)benzamide] the IC50 was under 50 nM.
In the case of C[C@@H]1CC[C@@H](C)N1C(=O)CCc1cn(-c2ccccc2)c(NC(=O)c2cccc(-c3cn[nH]c3)c2)n1 [Example 29, N-(4-(3-((2R,5R)-2,5-dimethylpyrrolidin-1-yl)-3-oxopropyl)-1-phenyl-1H-imidazol-2-yl)-3-(1H-pyrazol-4-yl)benzamide], the IC50 is reported as under 50 nM.
C[C@@H]1CCCCN1C(=O)CCc1cn(-c2ccccc2)c(NC(=O)c2cccc(-c3cn[nH]c3)c2)n1 [Example 30, (R)—N-(4-(3-(2-methylpiperidin-1-yl)-3-oxopropyl)-1-phenyl-1H-imidazol-2-yl)-3-(1H-pyrazol-4-yl)benzamide] gave an IC50 of under 50 nM.
C[C@H]1CCCCN1C(=O)CCc1cn(-c2ccccc2)c(NC(=O)c2cccc(-c3cn[nH]c3)c2)n1 [Example 31, (S)—N-(4-(3-(2-methylpiperidin-1-yl)-3-oxopropyl)-1-phenyl-1H-imidazol-2-yl)-3-(1H-pyrazol-4-yl)benzamide] showed an IC50 of 50 to 100 nM.
